# What was measured:
# [1] = Antibiotic iontophoresis in sheep tibia, antibiotic concentration in bone samples; conditions: 1% solution, 100 volts
# Protocol: Quantitative analysis was then carried out to test iontophoresis as a means of antibiotic delivery in allograft bone. Specimens of sheep tibia were prepared as described above. […] A potential difference of 100 volts was applied for 1 minute, 5 minutes or 10 minutes with controls being set up the same way for 10 minutes except no potential difference was applied. A recording of current passed for each specimen was made.
# Each sample was then washed in water and dried. Samples from 10 the endosteal and periosteal surfaces were then taken by drilling the bone using a 3 mm low speed drill, in 10 positions on each surface, and crushed to a fine powder. To a known mass of each sample was added distilled water (2 ml) and the sample agitated using ultrasound. The sample was then centrifuged and the supernatant removed and the process repeated a further 2 times. The last wash was left to soak for 12 hours before centrifuging. […] The supernatant solutions were then analysed for antibiotic content; for gentamicin using Fluorescence Polarisation Immuno Assay (Abbot Axsym Analyser); and for flucloxacillin the assays were performed using High Performance Liquid Chromatography (HPLC) technique. From the levels in the supernatant solutions, the antibiotic concentrations in the bone samples were calculated. […]
# Staphylococcus aureus = conditions: varies with different phage types; cited from earlier work
substance,measurement,setting,value
gentamicin Sulphate,plateau level in endosteal and periosteal specimens,[1],about 150 mg/Kg
same,minimum inhibitory concentration,Staphylococcus aureus,approximately 0.25 mg/L

# Source: patent publication US6602296B1, “Chemical supplementation of bone” (The University of Western Australia, priority 1997, dated 2003)
